Experimental data published in patent US20230058189A1, “QUINOLIN-4-ONE AND 4(1H)-CINNOLINONE COMPOUNDS AND METHODS OF USING SAME” (Frequency Therapeutics, Inc., priority 2019, published 2023).
Converted amounts (≈) assume the structure as drawn.

Columns and labels:
[1] = Caco-2 cell permeability assay; type: in vitro ADME; conditions: human, pH 7.4, approximate values; for efflux ratio at 2 h, 10 µM: Caco-2, Papp (B-A)/Papp (A-B); for Papp A→B at 2 h, 10 μM: Caco-2, apical to basolateral
Protocol: A Caco-2 cell permeability assay can be used for in vitro prediction of drug permeability and absorption, an important feature for a compound to be useful for methods described herein. The apparent permeability (Papp) of the compounds of the present disclosure were determined in Caco-2 cells to measure the rate of drug transport per surface area of the cell membrane. Further the efflux ratios of the compounds of the present disclosure were measured in Caco-2 cells to determine the apparent permeability coefficient in basolateral to apical direction with respect to the apparent permeability coefficient in apical to basolateral direction.
50 μL and 25 mL of cell culture medium were added to each well of the Transwell insert and reservoir, respectively. The HTS transwell plates were incubated at 37° C., 5% CO2 for 1 hour before cell seeding. Caco-2 cells were diluted to 6.86×10^5 cells/mL with culture medium and 50 μL of cell suspension were dispensed into the filter well of the 96-well HTS Transwell plate. Cells were cultivated for 14-18 days in a cell culture incubator at 37° C., 5% CO295% relative humidity. Cell culture medium was replaced every other day, beginning no later than 24 hours after initial plating.
Medium was removed from the reservoir and each Transwell insert and replaced with prewarmed fresh culture medium. Transepithelial electrical resistance (TEER) across the monolayer was measured using Millicell Epithelial Volt-Ohm measuring system (Millipore, USA). The Plate was returned to the incubator once the measurement was done. The TEER value was calculated according to the following equation: TEER measurement (ohms)×Area of membrane (cm^2)=TEER value (ohm·cm^2).
To prepare the HBSS (25 mM HEPES, pH 7.4), accurately weigh 5.958 g of HEPES and 0.35 g sodium hydrogen carbonate and add into 900 mL of pure water, then sonicate to dissolve the content. Transfer 100 mL of 10× HBSS into the solution, and place the solution on a stirrer, slowly adjust pH with sodium hydrate to 7.4, following with filtering. Add 6 μL of stock solution (10 mM) of test compound or control compound to 24 μL of DMSO into the same well to obtain 2 mM stock solutions. Transfer 3 μL of 2 mM solution into 597 μL of transport buffer in one 96 well plate to prepare the 10 μM compound working solution. Shake the plate at 1000 rpm for 10 min. The final concentration of DMSO in the incubation system was 0.5%. Metoprolol, erythromycin, and cimetidine were used as control compounds.
Assays can be conducted using Caco-2 cells to assay transport of a compound or composition For example, Caco-2 plates prepared as described above were removed from the incubator. Monolayers were washed twice with pre-warmed HBSS (25 mM HEPES, pH 7.4), then the plates were incubated at 37° C. for 30 minutes. To determine the rate of drug transport in the apical to basolateral direction, 108 μL of the working solution was added to the Transwell insert (apical compartment), and 8 μL sample was immediately transferred from the apical compartment to 72 μL transport buffer and 240 μL of acetonitrile containing IS (100 nM alprazolam, 200 nM caffeine and 100 nM tolbutamide) in a new 96-well plate as the initial donor sample (A-B). The samples were then vortexed at 1000 rpm for 10 minutes. The wells in the receiver plate (basolateral compartment) were filled with 300 μL of transport buffer. To determine the rate of drug transport in the basolateral to apical direction, 308 μL of the working solution were added to the receiver plate wells (basolateral compartment), and 8 μL sample was immediately transferred from the basolateral compartment to 72 μL transport buffer and 240 μL of acetonitrile containing IS (100 nM alprazolam, 200 nM caffeine and 100 nM tolbutamide) into a new 96-well plate as the initial donor sample (B-A), then Vortexed at 1000 rpm for 10 minutes. The Transwell insert (apical compartment) was filled with 100 μL of transport buffer. […]

[2] = Thermodynamic aqueous solubility at pH 7.4; type: physicochemical; conditions: aqueous buffer, thermodynamic from solid, phosphate buffer pH 7.4, 25° C., approximate values, read-out: Concentration (thermodynamic aqueous solubility)
Protocol: The aqueous thermodynamic solubilities of the compounds of the present disclosure were measured at pH 7.4.
Determining suitability for use of a compound, e.g., as a therapeutic agent can include determining the thermodynamic solubility of the compound. An example of this determination follows: Accurately weigh about 1 mg of the powder of each compound into a glass insert vial and phosphate buffer into each vial of a capless Solubility Sample plate with the volume of 1 mL per mg. Next, add one stir stick to each vial and seal with a molded PTDE/SIL 96-Well Plate Cover. Transfer the Solubility Sample plate to an Eppendorf Thermomixer Comfort plate shaker and shake the plate at 25° C. at 1,100 rpm for 24 hours. At the end of the incubation, open the cover and remove the stir sticks using a big magnet and transfer the samples from the Solubility Sample plate into the filter plate. Using the vacuum manifold, all the samples were filtered. An aliquot of 100 μL was transferred from filtrate to a new 96-well plate by addition of 900 μL of a mixture of H2O and acetonitrile containing an internal standard (1:1) (10 fold) and 10 μL of the diluted solution was pipetted into a new 96-well plate by addition of 990 μL of a mixture of H2O and acetonitrile containing internal standard (1:1) (1,000 fold). The dilution factor may be changed according to the solubility value and the LC/MS signal response.
To prepare standards for the assay, accurately weigh about 1 mg of the powder of each compound into a glass insert vial, add DMSO into each vial of the Standard Plate with the volume of 1 mL per mg to obtain the 1 mg/mL STD sample. Aliquots of 10 μL were taken from 1 mg/mL STD sample to a new 96-well plate followed by addition of 990 μL of a mixture of H2O and acetonitrile containing internal standard (1:1) to obtain 10 μg/mL STD and then 10 μL aliquots were taken from 10 μg/mL sample to a new 96-well plate followed by addition of 990 μL of a mixture of H2O and acetonitrile containing internal standard (1:1) to obtain 0.1 μg/mL STD. The concentration of the standard sample may be changed according to the LC/MS signal response.
The samples were analyzed and quantified against the standard of known concentration using LC/MS/MS. The solubility of the test compound was calculated as follows: [Sample]=Area Ratio sample×DF sample×[STD]/Area Ratio STD DF means the dilution factor. Any value of the compounds that is not within the specified limits was rejected and the experiment was repeated.

Row | SMILES | efflux ratio at 2 h, 10 µM [1] | Papp A→B at 2 h, 10 μM [1] [×10⁻⁶ cm/s] | solubility thermodynamic at 24 h [2] [µM]
1 | CCn1cc(C(=O)O)c(=O)c2c(N)c(F)c(N[C@@H]3CC[C@H]3c3ccccc3)cc21 (relative stereo) [Compound I-13] | 0.53 | 5.5 | < 1.2
2 | CCn1cc(C(=O)O)c(=O)c2c(N)c(F)c(N[C@@H]3CC[C@@H]3c3ccccc3)cc21 (relative stereo) [Compound I-14] | 0.58 | 8.6 | –
3 | CCn1cc(C(=O)O)c(=O)c2c(N)c(F)c(N[C@@H]3C[C@@H]3c3ccccc3)cc21 (relative stereo) [Compound I-23] | 0.69 | 1.1 | < 0.03
4 | CCn1cc(C(=O)O)c(=O)c2c(N)c(F)c(N3CCC(N[C@@H]4C[C@H]4c4ccccc4)CC3)cc21 (relative stereo) [Compound I-26] | 0.85 | 7.9 | –
5 | CCn1cc(C(=O)O)c(=O)c2c(N)c(F)c(N[C@H]3CC[C@H](N[C@@H]4C[C@H]4c4ccccc4)CC3)cc21 (relative stereo) [Compound I-27] | 1.96 | 0.94 | 4.7 (≈ 2.25 µg/mL)
6 | CCn1cc(C(=O)O)c(=O)c2c(N)c(F)c(N[C@H]3CC[C@@H](N[C@@H]4C[C@H]4c4ccccc4)CC3)cc21 (relative stereo) [Compound I-28] | 0.48 | 3.1 | 4 (≈ 1.91 µg/mL)
7 | CCn1cc(C(=O)O)c(=O)c2c(N)c(F)c(NCCN[C@@H]3C[C@H]3c3ccccc3)cc21 (relative stereo) [Compound I-29] | 0.39 | 9.1 | 1.93 (≈ 0.819 µg/mL)
8 | Nc1c(F)c(N[C@@H]2C[C@H]2c2ccccc2)c(F)c2c1c(=O)c(C(=O)O)cn2C1CC1 (relative stereo) [Compound I-32] | 0.47 | 4.2 | < 0.08
9 | CCn1cc(C#N)c(=O)c2c(N)c(F)c(N[C@@H]3C[C@H]3c3ccccc3)cc21 (relative stereo) [Compound I-38] | 0.75 | 1.6 | < 0.01
10 | CCn1cc(C(=O)O)c(=O)c2c(N)c(F)c(N(C)CCN[C@H]3C[C@@H]3c3ccccc3)cc21 (relative stereo) [Compound I-50] | 1.04 | 9.7 | –
11 | CCn1cc(C(=O)O)c(=O)c2c(N)cc(N[C@@H]3C[C@H]3c3ccccc3)cc21 (relative stereo) [Compound I-59] | 0.58 | 6.4 | < 0.06
12 | CCn1cc(C(=O)O)c(=O)c2c(N)c(F)c(Nc3ccc([C@@H]4C[C@H]4N)cc3)cc21 (relative stereo) [Compound I-62] | 38 | 0.82 | 54 (≈ 21.4 µg/mL)
13 | CCn1cc(C(=O)O)c(=O)c2c(N)c(F)c(NC3CC(N[C@@H]4C[C@H]4c4ccccc4)C3)cc21 (relative stereo) [Compound I-70] | 1.2 | 2.4 | 1.6 (≈ 0.721 µg/mL)
14 | CCn1cc(C(=O)O)c(=O)c2c(N)c(F)c(NCCN[C@@H]3C[C@]34CCc3ccccc34)cc21 (relative stereo) [Compound I-81] | 0.59 | 5.9 | 1.2 (≈ 0.541 µg/mL)
15 | CCn1cc(C(N)=O)c(=O)c2c(N)c(F)c(NCCN[C@H]3C[C@@H]3c3ccccc3)cc21 (relative stereo) [Compound I-83] | 1.3 | 5.1 | 9.6 (≈ 4.07 µg/mL)
16 | CCn1cc(C#N)c(=O)c2c(N)c(F)c(NCCN[C@@H]3C[C@H]3c3ccccc3)cc21 (relative stereo) [Compound I-84] | 2.1 | 4.1 | 49 (≈ 19.9 µg/mL)
17 | Cn1cc(C(=O)O)c(=O)c2c(N)c(F)c(NCCN[C@@H]3C[C@H]3c3ccccc3)cc21 (relative stereo) [Compound I-86] | 1.4 | 5 | 23 (≈ 9.44 µg/mL)
18 | CCCn1cc(C(=O)O)c(=O)c2c(N)c(F)c(NCCN[C@@H]3C[C@H]3c3ccccc3)cc21 (relative stereo) [Compound I-87] | 1.4 | 4.7 | 8 (≈ 3.51 µg/mL)
19 | CCn1cc(C(=O)O)c(=O)c2c(N)c(F)c(N[C@@H]3C[C@H]3c3ccccc3)cc21 (single isomer, unassigned) [Compound I-20] | 0.29 | 6.1 | < 0.3
20 | CCn1cc(C(=O)O)c(=O)c2cc(F)c(NC3CCCCC3)cc21 [Compound I-1] | 0.47 | 31 | –
21 | CCn1cc(C(=O)O)c(=O)c2c(N)c(F)c(NC3CCc4ccccc43)cc21 (centres unmarked) [Compound I-10] | 0.56 | 6.3 | –
22 | CCn1cc(C(=O)O)c(=O)c2c(N)cc(NCCc3ccccc3)c(F)c21 [Compound I-65] | – | – | 0.11 (≈ 0.0406 µg/mL)
